Test results taken from article PMC12090193, “Flavonoid carbamate hybrids: design, synthesis, and evaluation as multi-target enzyme inhibitors for Alzheimer's disease” (RSC Advances, 2025).
Like-named read-outs stand apart in the source and are kept apart here.

How the values were obtained:
MAGL = target: T1, MAGL (Homo sapiens, UniProt Q99685); assay: biochemical
T1 construct: purchased Finetest (China)
T1 sequence (Q99685 1-303): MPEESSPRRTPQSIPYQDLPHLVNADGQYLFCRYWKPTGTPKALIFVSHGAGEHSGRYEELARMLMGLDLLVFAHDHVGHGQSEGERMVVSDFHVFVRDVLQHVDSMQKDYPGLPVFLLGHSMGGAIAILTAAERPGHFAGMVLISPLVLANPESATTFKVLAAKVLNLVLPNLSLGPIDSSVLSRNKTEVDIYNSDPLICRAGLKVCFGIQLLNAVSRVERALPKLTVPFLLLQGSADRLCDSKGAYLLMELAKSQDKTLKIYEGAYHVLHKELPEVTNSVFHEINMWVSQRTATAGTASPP
Procedure: The MAGL inhibitory activity of the synthesized compounds was assessed using a spectrophotometric assay, employing 4-NPA as a surrogate substrate. The experimental procedure was adapted from a previously published protocol with minor modifications.[37]
The assay was conducted at room temperature using an ELISA reader (EMR-500) with a 96-well plate, with a total reaction volume of 200 μL per well. The reaction system comprised 10 mM tris–HCl buffer (pH 7.2), 1 mM EDTA, and 0.1 mg mL^−1 bovine serum albumin. […] The negative control was prepared by replacing the inhibitor with 10 μL of DMSO. The enzymatic reaction was initiated by adding 40 μL of MAGL enzyme solution (11 ng per well), while the blank control used buffer instead of the enzyme. The reaction mixtures were incubated for 30 minutes, and absorbance was measured at 405 nm. Each sample was tested in triplicate, and IC50 values were determined from the obtained data using GraphPad Prism 8.4.3.

AChE = target: T2, AChE (Homo sapiens, UniProt P22303); assay: AChE inhibition assay (Ellman's method); assay type: biochemical
T2 construct: purchased Sigma-Aldrich (Germany)
Procedure: The AChE inhibitory activity of the synthesized compounds was determined using Ellman's method, with slight modifications to optimize experimental conditions.[35] The assay was performed following the procedures described in our previous study.[36]

[1] = 4-NPA 100 μM, 30 min, absorbance 405 nm, triplicate, read-out: IC50 ± SD MAGL
[2] = Ellman's method, read-out: IC50 ± SD AChE

T2 sequence (P22303 32-614): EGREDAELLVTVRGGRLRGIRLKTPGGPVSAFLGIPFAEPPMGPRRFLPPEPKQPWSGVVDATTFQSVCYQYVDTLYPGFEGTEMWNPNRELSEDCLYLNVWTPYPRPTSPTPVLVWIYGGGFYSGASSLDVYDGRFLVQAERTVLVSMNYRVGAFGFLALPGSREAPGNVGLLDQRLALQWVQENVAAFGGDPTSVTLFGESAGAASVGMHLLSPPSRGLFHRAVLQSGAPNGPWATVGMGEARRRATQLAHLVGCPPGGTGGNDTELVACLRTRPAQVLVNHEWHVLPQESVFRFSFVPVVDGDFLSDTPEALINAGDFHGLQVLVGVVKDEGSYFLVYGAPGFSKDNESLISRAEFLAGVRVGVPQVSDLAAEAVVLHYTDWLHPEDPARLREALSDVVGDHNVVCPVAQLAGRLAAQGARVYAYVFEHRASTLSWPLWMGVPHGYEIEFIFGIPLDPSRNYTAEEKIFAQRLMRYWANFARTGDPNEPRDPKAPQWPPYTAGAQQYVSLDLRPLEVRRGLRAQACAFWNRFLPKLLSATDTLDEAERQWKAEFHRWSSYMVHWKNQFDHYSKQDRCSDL

## CCN(C)C(=O)Oc1cc(OC(=O)N(C)CC)c2c(=O)cc(-c3ccccc3)oc2c1 [Compound C6, 4-Oxo-2-phenyl-4H-chromene-5,7-diyl bis(ethyl(methyl)carbamate)]
MAGL
  IC50: > 200 µM
AChE
  IC50: > 200 µM

## CN(C)C(=O)Oc1ccc(-c2oc3cc(OC(=O)N(C)C)cc(OC(=O)N(C)C)c3c(=O)c2OC(=O)N(C)C)cc1 [Compound K2, 2-(4-((Dimethylcarbamoyl)oxy)phenyl)-4-oxo-4H-chromene-3,5,7-triyl tris(dimethylcarbamate)]
MAGL
  IC50: > 200 µM
AChE
  IC50: > 200 µM

## CN(C)C(=O)Oc1cc(OC(=O)N(C)C)c2c(=O)cc(-c3ccccc3)oc2c1 [Compound C2, 4-Oxo-2-phenyl-4H-chromene-5,7-diyl bis(dimethylcarbamate)]
MAGL
  IC50: 96.4 ± 1.54 µM
AChE
  IC50: > 200 µM

## CCN(CC)C(=O)Oc1ccc(-c2oc3cc(OC(=O)N(CC)CC)cc(O)c3c(=O)c2OC(=O)N(CC)CC)cc1 [Compound K3, 2-(4-((Diethylcarbamoyl)oxy)phenyl)-5-hydroxy-4-oxo-4H-chromene-3,7-diyl bis(diethylcarbamate)]
MAGL; [1]
  IC50: 61.6 ± 3.01 µM
AChE; [2]
  IC50: 146 ± 10.4 µM

## CCN(C)C(=O)Oc1cc(O)c2c(=O)cc(-c3ccccc3)oc2c1 [Compound C5, 5-Hydroxy-4-oxo-2-phenyl-4H-chromen-7-yl ethyl(methyl)carbamate]
MAGL
  IC50: 46.6 ± 2.23 µM
AChE
  IC50: 89.4 ± 5.66 µM

## CCN(C)C(=O)Oc1ccc(-c2oc3cc(OC(=O)N(C)CC)cc(O)c3c(=O)c2OC(=O)N(C)CC)cc1 [Compound K5, 2-(4-((Ethyl(methyl)carbamoyl)oxy)phenyl)-5-hydroxy-4-oxo-4H-chromene-3,7-diyl bis(ethyl(methyl)carbamate)]
MAGL
  IC50: 60.1 ± 4.74 µM
AChE
  IC50: > 200 µM

## CCN(CC)C(=O)Oc1ccc(-c2oc3cc(OC(=O)N(CC)CC)cc(OC(=O)N(CC)CC)c3c(=O)c2OC(=O)N(CC)CC)cc1 [Compound K4, 2-(4-((Diethylcarbamoyl)oxy)phenyl)-4-oxo-4H-chromene-3,5,7-triyl tris(diethylcarbamate)]
MAGL; [1]
  IC50: > 200 µM
AChE; [2]
  IC50: > 200 µM

## CN(C)C(=O)Oc1cc(O)c2c(=O)cc(-c3ccccc3)oc2c1 [Compound C1, 5-Hydroxy-4-oxo-2-phenyl-4H-chromen-7-yl dimethylcarbamate]
MAGL
  IC50: 72.2 ± 5.34 µM
AChE
  IC50: 188 ± 16.2 µM

## CCN(C)C(=O)Oc1ccc(-c2oc3cc(OC(=O)N(C)CC)cc(OC(=O)N(C)CC)c3c(=O)c2OC(=O)N(C)CC)cc1 [Compound K6, 2-(4-((Ethyl(methyl)carbamoyl)oxy)phenyl)-4-oxo-4H-chromene-3,5,7-triyl tris(ethyl(methyl)carbamate)]
MAGL
  IC50: 178 ± 9.12 µM
AChE
  IC50: > 200 µM

## CCN(CC)C(=O)Oc1cc(OC(=O)N(CC)CC)c2c(=O)cc(-c3ccccc3)oc2c1 [Compound C4, 4-Oxo-2-phenyl-4H-chromene-5,7-diyl bis(diethylcarbamate)]
MAGL; [1]
  IC50: > 200 µM
AChE; [2]
  IC50: > 200 µM

## CN(C)C(=O)Oc1ccc(-c2oc3cc(OC(=O)N(C)C)cc(O)c3c(=O)c2OC(=O)N(C)C)cc1 [Compound K1, 2-(4-((Dimethylcarbamoyl)oxy)phenyl)-5-hydroxy-4-oxo-4H-chromene-3,7-diyl bis(dimethylcarbamate)]
MAGL
  IC50: 126 ± 8.28 µM
AChE
  IC50: 100 ± 7.85 µM

## O=c1c(O)c(-c2ccc(O)cc2)oc2cc(O)cc(O)c12 [Kaempferol, reference compound]
MAGL; [1]
  IC50: 189 ± 7.89 µM
AChE
  IC50: 226 ± 17.9 µM

## CCN(CC)C(=O)Oc1cc(O)c2c(=O)cc(-c3ccccc3)oc2c1 [Compound C3, 5-Hydroxy-4-oxo-2-phenyl-4H-chromen-7-yl diethylcarbamate]
MAGL; [1]
  IC50: 22.9 ± 1.3 µM
AChE; [2]
  IC50: 61.8 ± 1.42 µM

## O=c1cc(-c2ccccc2)oc2cc(O)cc(O)c12 [Chrysin, reference compound]
MAGL; [1]
  IC50: 169 ± 11.4 µM
AChE; [2]
  IC50: 157 ± 11.7 µM
